Measurements published in US20250073251A1, “COMPOSITIONS AND METHODS AND USES THEREOF” (Journey Medical Corporation, priority 2019, published 2025).
Where a name gives a salt, the structure may show the parent alone.

How the values were obtained:
[1] = in vivo; conditions: both, Göttingen, minipig, plasma, topical or ocular
[2] = Toxicokinetics after daily dermal application

In the case of `CN(C)c1ccc(O)c2c1C[C@H]1C[C@H]3[C@H](N(C)C)C(O)=C(C(N)=O)C(=O)[C@@]3(O)C(O)=C1C2=O` [minocycline, minocycline hydrochloride], the Cmax [1] is reported as 17.4 ng/mL, the “systemic exposure, dependence on sex” value ([2]; Day 91) is reported as “independent of sex” and the Tmax ([2]; Group 6, minocycline […] + adapalene […] FCD105 Foam, Day 1, minimum-maximum (median not reported)) is reported as “(4-8) hr”. For the same compound, the Tmax ([2]; Group 6, minocycline […] + adapalene […] FCD105 Foam, Day 91, minimum-maximum (median not reported)) was “(0-8) hr”, the Tmax ([2]; Göttingen, minipig, plasma, topical or ocular, […], Tmax, Group 4, minocycline […] + adapalene […] FCD105 Foam, Day 1, median) was 4 h and the Tmax ([2]; Göttingen, minipig, plasma, topical or ocular, […], Tmax, Group 4, minocycline […] + adapalene […] FCD105 Foam, Day 91, median) was 2 h. The Tmax ([2]; Göttingen, minipig, plasma, topical or ocular, […], Tmax, Group 5, minocycline […] + adapalene […] FCD105 Foam, Day 1, median) was 24 h and the Tmax ([2]; Göttingen, minipig, plasma, topical or ocular, […], Tmax, Group 5, minocycline […] + adapalene […] FCD105 Foam, Day 91, median) was 2 h.
